Results: ChEMBL document CHEMBL3045354, “Synthesis, molecular modeling, and biological evaluation of 1,2,4-triazole derivatives containing pyridine as potential anti-tumor agents” (Med Chem Res, 2013)
The source made the active and inactive calls. The rule behind the calls is not given here.

Columns and labels:
MCF7 = test: Antiproliferative activity against Homo sapiens (human) MCF7 cells assessed as growth inhibition after 48 hr by MTT assay; details: MCF7, 48 h
HepG2 = test: Antiproliferative activity against Homo sapiens (human) HepG2 cells assessed as growth inhibition after 48 hr by MTT assay; details: HepG2, 48 h
HCT-116 [1] = test: Antiproliferative activity against Homo sapiens (human) HCT116 cells assessed as growth inhibition after 48 hr by MTT assay; details: HCT-116, 48 h
HCT-116 [2] = test: Induction of apoptosis in Homo sapiens (human) HCT116 cells assessed as necrotic cells at 2 uM after 24 hr by Annexin V-FITC/PI staining based flow cytometry (reference value: 0.60%); type: functional
HCT-116 [3] = test: Induction of apoptosis in Homo sapiens (human) HCT116 cells assessed as viable cells at 0.5 uM after 24 hr by Annexin V-FITC/PI staining based flow cytometry (reference value: 92.80%); type: functional; details: HCT-116, 24 h, read-out: Activity
HCT-116 [4] = test: Induction of apoptosis in Homo sapiens (human) HCT116 cells assessed as late apoptotic cells at 8 uM after 24 hr by Annexin V-FITC/PI staining based flow cytometry (reference value: 2.87%); type: functional
HCT-116 [5] = test: Induction of apoptosis in Homo sapiens (human) HCT116 cells assessed as PARP cleavage at 0.5 to 8 uM by Western blot analysis; type: functional, cell-based
HCT-116 [6] = test: Induction of apoptosis in Homo sapiens (human) HCT116 cells assessed as early apoptotic cells at 2 uM after 24 hr by Annexin V-FITC/PI staining based flow cytometry (reference value: 3.73%); type: functional
HCT-116 [7] = test: Induction of apoptosis in Homo sapiens (human) HCT116 cells assessed as late apoptotic cells at 2 uM after 24 hr by Annexin V-FITC/PI staining based flow cytometry (reference value: 2.87%); type: functional
HCT-116 [8] = test: Induction of apoptosis in Homo sapiens (human) HCT116 cells assessed as increase in cleaved caspase-3 level at 0.5 to 8 uM by Western blot analysis; type: functional, cell-based
HCT-116 [9] = test: Induction of apoptosis in Homo sapiens (human) HCT116 cells assessed as late apoptotic cells at 0.5 uM after 24 hr by Annexin V-FITC/PI staining based flow cytometry (reference value: 2.87%); type: functional
HCT-116 [10] = test: Induction of apoptosis in Homo sapiens (human) HCT116 cells assessed as viable cells at 2 uM after 24 hr by Annexin V-FITC/PI staining based flow cytometry (reference value: 92.80%); type: functional; details: HCT-116, 24 h, read-out: Activity
HCT-116 [11] = test: Induction of apoptosis in Homo sapiens (human) HCT116 cells assessed as necrotic cells at 0.5 uM after 24 hr by Annexin V-FITC/PI staining based flow cytometry (reference value: 0.60%); type: functional
HCT-116 [12] = test: Induction of apoptosis in Homo sapiens (human) HCT116 cells assessed as necrotic cells at 8 uM after 24 hr by Annexin V-FITC/PI staining based flow cytometry (reference value: 0.60%); type: functional
HCT-116 [13] = test: Induction of apoptosis in Homo sapiens (human) HCT116 cells assessed as viable cells at 8 uM after 24 hr by Annexin V-FITC/PI staining based flow cytometry (reference value: 92.80%); type: functional; details: HCT-116, 24 h, read-out: Activity
HCT-116 [14] = test: Induction of apoptosis in Homo sapiens (human) HCT116 cells assessed as early apoptotic cells at 8 uM after 24 hr by Annexin V-FITC/PI staining based flow cytometry (reference value: 3.73%); type: functional
HCT-116 [15] = test: Induction of apoptosis in Homo sapiens (human) HCT116 cells assessed as early apoptotic cells at 0.5 uM after 24 hr by Annexin V-FITC/PI staining based flow cytometry (reference value: 3.73%); type: functional

SMILES | IC50 (MCF7) [µM] | IC50 (HepG2) [µM] | IC50 (HCT-116 [1]) [µM] | further results
O=C(CSc1nnc(-c2ccncc2)n1-c1ccccc1)N/N=C/c1ccc(Br)cc1 | 7.04 | 5.99 | 4.5 | –
Fc1ccccc1CSc1nnc(-c2ccncc2)n1-c1ccccc1 | > 50 | > 50 | 12 | –
O=C(CSc1nnc(-c2ccncc2)n1-c1ccccc1)N/N=C/c1ccc(F)cc1 | 12.3 | 9.33 | 7.04 | –
O=C(CSc1nnc(-c2ccncc2)n1-c1ccccc1)N/N=C/c1ccc(Cl)cc1 | 9.93 | 11 | 5.74 | –
Fc1ccc(CSc2nnc(-c3ccncc3)n2-c2ccccc2)cc1 | 21.1 | 15.6 | 12.8 | –
O=C(CSc1nnc(-c2ccncc2)n1-c1ccccc1)N/N=C/c1ccc([N+](=O)[O-])cc1 | 15.3 | 15.9 | 10.2 | –
O=C(CSc1nnc(-c2ccncc2)n1-c1ccccc1)N/N=C/c1ccc(O)cc1 | > 50 | > 50 | > 50 | –
O=C(CSc1nnc(-c2ccncc2)n1-c1ccccc1)N/N=C/c1ccc(O)c(O)c1 | 19.7 | 16.9 | 14.7 | –
O=C(CSc1nnc(-c2ccncc2)n1-c1ccccc1)N/N=C/c1cc(Br)cc(Br)c1O | 8.44 | 7.59 | 4.5 | –
O=C(CSc1nnc(-c2ccncc2)n1-c1ccccc1)N/N=C/c1cccc(F)c1 | > 50 | 24.4 | > 50 | –
O=[N+]([O-])c1ccccc1CSc1nnc(-c2ccncc2)n1-c1ccccc1 | > 50 | > 50 | > 50 | –
COc1ccc(/C=N/NC(=O)CSc2nnc(-c3ccncc3)n2-c2ccccc2)cc1 | 23.7 | 27.1 | 19.2 | –
Brc1ccccc1CSc1nnc(-c2ccncc2)n1-c1ccccc1 | 16.1 | 17.1 | 20.2 | –
O=[N+]([O-])c1ccc(CSc2nnc(-c3ccncc3)n2-c2ccccc2)cc1 | 22.8 | > 50 | 23.8 | –
O=C(CSc1nnc(-c2ccncc2)n1-c1ccccc1)N/N=C/C=C/c1ccccc1 | 11.2 | 8.28 | 6.15 | –
Fc1cccc(F)c1CSc1nnc(-c2ccncc2)n1-c1ccccc1 | > 50 | > 50 | 22.1 | –
O=C(CSc1nnc(-c2ccncc2)n1-c1ccccc1)N/N=C/c1cc(Br)ccc1O | 6.46 | 4.39 | 1.99 | Activity (HCT-116 [2]): 2.44%; viability at 0.5 µM (HCT-116 [3]): 90%; Activity (HCT-116 [4]): 38.01%; Activity (HCT-116 [5]): Active; Activity (HCT-116 [6]): 18.85%; Activity (HCT-116 [7]): 12.47%; Activity (HCT-116 [8]): Active; Activity (HCT-116 [9]): 3.27%; viability at 2 µM (HCT-116 [10]): 86.2%; Activity (HCT-116 [11]): 0.72%; Activity (HCT-116 [12]): 3.04%; viability at 8 µM (HCT-116 [13]): 31.6%; Activity (HCT-116 [14]): 27.35%; Activity (HCT-116 [15]): 5.99%
Clc1ccc(CSc2nnc(-c3ccncc3)n2-c2ccccc2)cc1 | 13.3 | 16.9 | 10.7 | –
O=C(CSc1nnc(-c2ccncc2)n1-c1ccccc1)N/N=C/c1ccccc1O | 10 | 11.3 | 7.06 | –
Brc1ccc(CSc2nnc(-c3ccncc3)n2-c2ccccc2)cc1 | 12.6 | 12.9 | 11.1 | –
Fc1ccc(CSc2nnc(-c3ccncc3)n2-c2ccccc2)c(F)c1 | 14.1 | 10.2 | 11.4 | –
Clc1cccc(CSc2nnc(-c3ccncc3)n2-c2ccccc2)c1 | 10.5 | 11.2 | 9.82 | –
O=[N+]([O-])c1cccc(CSc2nnc(-c3ccncc3)n2-c2ccccc2)c1 | 18.3 | 22 | 19.8 | –
Brc1cccc(CSc2nnc(-c3ccncc3)n2-c2ccccc2)c1 | 10 | 7.04 | 8.17 | Activity (HCT-116 [2]): 1.08%; viability at 0.5 µM (HCT-116 [3]): 88.2%; Activity (HCT-116 [4]): 31.69%; Activity (HCT-116 [5]): Active; Activity (HCT-116 [6]): 11.39%; Activity (HCT-116 [7]): 9.25%; Activity (HCT-116 [8]): Active; Activity (HCT-116 [9]): 3.24%; viability at 2 µM (HCT-116 [10]): 78.3%; Activity (HCT-116 [11]): 0.28%; Activity (HCT-116 [12]): 5.59%; viability at 8 µM (HCT-116 [13]): 50.4%; Activity (HCT-116 [14]): 12.3%; Activity (HCT-116 [15]): 8.24%
c1ccc(CSc2nnc(-c3ccncc3)n2-c2ccccc2)cc1 | 22.4 | 12.9 | 16.9 | –
O=C(CSc1nnc(-c2ccncc2)n1-c1ccccc1)N/N=C/c1ccccc1 | 23.6 | 18.6 | 14.7 | –
Clc1ccccc1CSc1nnc(-c2ccncc2)n1-c1ccccc1 | 18.1 | 15.7 | 13.8 | –
O=C(CSc1nnc(-c2ccncc2)n1-c1ccccc1)N/N=C/c1ccccc1F | 22.4 | 15.2 | 18 | –
